What all share (type): cell-based
The test system of test [1] is Akt-mTOR pathway. Kind of test: EPS Akt-mTOR pathway score in expression data set of cells treated with 1294 compounds. Conditions: screen of 1294 compounds, strongest negative pathway scores. As to the method:
A potential application of EPS is to identify inhibitors of a selected pathway by searching for compounds that induce gene expression changes with a strongly negative pathway score. To test EPS's ability to identify small-molecule inhibitors of a pathway from a large library of compounds, an Akt-mTOR pathway signature was developed using gene expression profiles from the prostates of transgenic mice expressing activated Akt that were treated with either the mTOR inhibitor RAD001 or a vehicle control (Majumder et al.). This signature was used to estimate Akt-mTOR pathway activity in a data set derived from three cell lines that had been treated with 1294 different compounds (Lamb et al.). […] In fact, test samples treated with LY-294002 represented 8 of the top 9 samples identified (FIG. 11A).

Test [2] deals with TGFβ pathway. Kind of test: Western blot of Smad2 phosphorylation in NMuMG cells treated with TGF-β1. As to conditions: NMuMG cells, 0.15, 0.5, 1.5 or 15 ng/ml, 6 hours. As to the method:
To determine whether EPS could quantitatively estimate signal pathway activity in a biological data set, a genome-wide expression data set was generated to reflect graded increases in TGFβ pathway activation by treating the mammary epithelial cell line, NMuMG, with increasing dosages of TGF-β1 for 6 hours. Signature genes were selected using a p-value of 10^−10 associated with the changes in expression without fold-change cutoff.
(§1) To determine whether EPS could quantitatively estimate dose-dependent increases in TGFβ pathway activity using gene expression data, EPS prediction was compared to biochemical analysis of phospho-Smad2 levels in the same samples. Using a previously published TGFβ signature generated from NMuMG cells treated with TGF-β1 for 24 hours, it was determined whether SVD or EPS could detect pathway activation in NMuMG cells treated with increasing doses of TGF-β1. SVD detected pathway activation only in samples treated with the highest dose of TGFβ (15 ng/ml; FIG. 6B).
For orientation: In western blotting, separated proteins are transferred to a membrane and probed.

The test system of test [3] is TGFβ pathway. As to the kind of experiment: EPS estimate of TGFβ pathway activity from gene expression of NMuMG cells treated with TGF-β1. On the procedure: as §1
As expected from increasing TGFβ effects on mRNA levels over time, EPS predicted higher pathway activity in training set samples treated with TGF-β1 for 24 hours than in test samples treated with TGF-β1 for 6 hours. […] Therefore, a TGFβ signature was generated using NMuMG cells treated with the lowest dose of TGFβ (0.15 ng/ml) for the shortest period of time (6 hrs) as the training set. This signature was then used to test the ability of SVD and EPS to predict pathway activation at different TGFβ doses.

Entries after “also recorded” stand apart in the source; their conditions may differ.

For `O=c1cc(N2CCOCC2)oc2c(-c3ccccc3)cccc12` [LY-294002], the “test samples treated with the compound among the top 9 samples identified” value in test [1] turned out to be 8.
In the case of “TGF-β1: TGF-β1 used to treat the mammary epithelial cell line NMuMG”, the “TGFβ pathway activity as levels of phosphorylated Smad2” value in test [2] was “dose-dependent increase in TGFβ pathway activity; also recorded: elevated phospho-Smad2 was detected at all doses”. Besides, in test [3] (NMuMG cells, 0.5, 1.5 and 15 ng/ml, 6 hours), the “EPS-predicted TGFβ pathway activation, signature from 24 hours treatment” value is given as “significantly increased pathway activation”. Also, the “EPS-estimated TGFβ pathway activation, signature from 0.15 ng/ml for 6 hrs” value in test [3] (NMuMG cells, increasing doses (0.5, 1.5, 15 ng/ml)) is reported as “progressive increase of TGFβ pathway activation”.

The record behind these values is patent publication US20120173160A1, “METHODS AND SYSTEMS FOR QUANTITATIVELY ASSESSING BIOLOGICAL EVENTS USING ENERGY-PAIRED SCORING” (The Trustees of the University of Pennsylvania, priority 2010, published 2012).
